In publication PMC9963121, “Development of Combretastatin A-4 Analogues as Potential Anticancer Agents with Improved Aqueous Solubility” (Molecules, 2023):

Key:
[1] = system: AGS gastric cancer cell; test: MTT cell growth inhibition assay, AGS gastric cancer cells; type: cell-based; conditions: Homo sapiens, mean ± SD of three experiments
Excerpt: (§1) Initially, we designed and synthesised seven compounds—9a and 12a1–12a6—and evaluated the anticancer activity and aqueous solubility. We evaluated the cytotoxic effects of these stilbene nitrile analogues against a panel of four human cancer cell lines (HCT-116, BEL-7402, MCF-7 and AGS) and two human non-cancerous normal cell lines (L-02 and MCF-10A), using CA-4 as a control. The compounds were screened for aqueous solubility in 0.01 M PBS using a high throughput UV method. […] It is possible that the size of the nitrogen heterocycle had little effect on the activity of these compounds. […] The aqueous solubility of all the compounds 12a1–12a6 was higher than that of 9a, particularly that of 12a1 and 12a2 containing piperazine rings. […] Of the six compounds with improved aqueous solubility, 12a1 had the best activity.
(§2) All human cell lines were used in this study. AGS gastric cancer cell, BEL-7402 liver cancer cell, HCT-116 colorectal cancer cell, L-02 normal liver cell, MCF-7 breast cancer cell, and MCF-10A normal breast cell were initially purchased from American Type Culture Collection (ATCC, Manassas, VA, USA). RPMI-1640 media, DMEM and FBS, were provided by Gibco Company. The cells were maintained in DMEM or RPMI-1640, supplemented with 10% FBS, 100 IU/mL penicillin and […] streptomycin, and at 37 °C in a humidified atmosphere containing 5% CO2.
(§3) The experiment was carried out according to the method of reference.

[2] = system: MCF-7 breast cancer cell; test: MTT cell growth inhibition assay, MCF-7 breast cancer cells; type: cell-based; conditions: Homo sapiens, MCF7, mean ± SD of three experiments
Excerpt: as §1, §2, §3

[3] = system: HCT-116 colorectal cancer cell; test: MTT cell growth inhibition assay, HCT-116 colorectal cancer cells; type: cell-based, human; conditions: Homo sapiens, HCT-116; MTT; mean ± SD of three experiments
Excerpt: as §1, §2, §3

[4] = system: BEL-7402 liver cancer cell; test: MTT cell growth inhibition assay, BEL-7402 liver cancer cells; type: cell-based; conditions: Homo sapiens, mean ± SD of three experiments, read-out: IC50 BEL-7402 Hepatoma Cells
Excerpt: as §1, §2, §3

[5] = system: MCF-10A normal breast cell; test: MTT cell growth inhibition assay, MCF-10A normal breast cells; type: cell-based; conditions: Homo sapiens, mean ± SD of three experiments, read-out: IC50 MCF-10A Normal Breast Epithelial Cells
Excerpt: as §1, §2, §3

[6] = system: L-02 normal liver cell; test: MTT cell growth inhibition assay, L-02 normal liver cells; type: cell-based; conditions: Homo sapiens, mean ± SD of three experiments
Excerpt: as §1, §2, §3

[7] = Aqueous solubility in 0.01 M PBS, high throughput UV method; type: physicochemical; conditions: for solubility thermodynamic at 1.5 h: aqueous phosphate buffer, aqueous buffer, sodium phosphate buffer 0.01 M, pH 7.4, 22 ± 2 °C, mean ± SD
Excerpt: as §1
The aqueous solubility was determined as a previously reported procedure. Put simply, a certain amount of powdered compound was placed in a 2 mL centrifuge tube and mixed with an appropriate volume of aqueous phosphate buffer (10 mM, pH 7.4) to make the whole system supersaturated. The mixtures were sonicated (KQ5200DE numerical control ultrasonic cleaner, Kunshan Ultrasonic Instrument Co., Ltd., SuZhou, China) for 20 min. After sonication, the mixture was allowed to equilibrate at RT (22 ± 2 °C) for 1.5 h with vortex shaking (1200 rpm). Then centrifuged at 3000 rpm for 15 min (1-14k, sigma, Darmstadt, Germany), the supernatant was filtered with a 0.22 µM filter membrane. And then, take 150 µL of filtrate and add it to 96-well UV plate with triplicate. Draw 150 μL of blank solution was added into plate as blank control. The 96-well UV plate prepared above was read on a Synergy HTX Multifunctional Microplate Reader (BioTek, Vermont, USA) at 294 nm. The absorbance of the sample was corrected according to the UV response of the sample and blank solution, and the corrected UV response values were used for solubility calculations by bringing into the standard curve of the compound. […]
1.5. Solubility Assessment
The aqueous solubility was determined as previously reported using the high throughput solubility screens procedure published by Bruno Bard et al [9. 10]. Put simply, a certain amount of powdered compound was placed in a 2 ml centrifuge tube and mixed with an appropriate volume of aqueous phosphate buffer (0.01 M, pH 7.4) to make the whole system supersaturated. The mixtures were sonicated (KQ5200DE numerical control ultrasonic cleaner, Kunshan Ultrasonic Instrument Co., Ltd., China) for 20 min. After sonication, the mixture was allowed to equilibrate at room temperature (22 ± 2°C) for 1.5 h with vortex shaking (1200 rpm). Then the centrifuge tube was put into the centrifuge (1-14k, sigma, Germany), centrifuged with 3000 rpm for 15 minutes, 0.22 µM filter membrane filtration supernatant, then take 150 µl filtrate and add it to 96-well UV plate, with three well for each compound. Draw 150 μL blank solution were added into 96 well-plate as blank control. The 96-well UV […]
plate prepared above was read on a SynergyHTX Multifunctional microplate reader (BioTek, USA) at 338 nm (compounds 12a-12d and 15-20) or 370 nm (compounds 9a-d). The absorbance of the sample was corrected according to the UV response of the sample and blank solution, and the corrected UV responses value were used for solubility calculations by bring into the standard curve of the compound. […]

| Structure (SMILES) | IC50 [1] | IC50 [2] | IC50 [3] | IC50 [4] | solubility thermodynamic at 1.5 h [7] | Water solubility (in words) ([7]; Figure 1) | Increase of aqueous solubility compared with 9a ([7]; 0.01 M PBS, ratio to 9a) | melting point | IC50 [5] | IC50 [6] |
| --- | --- | --- | --- | --- | --- | --- | --- | --- | --- | --- |
| CCN1CCN(CC(=O)Nc2ccc(/C=C(\C#N)c3ccc(OC)c(OC)c3)cc2)CC1 [12c2] | 48.8 ± 2.44 µM | 31.1 ± 4.38 µM | 21.6 ± 2.87 µM | 10.1 ± 2.18 µM | 85.1 ± 13.2 µg/mL | – | – | – | 29.7 ± 4.56 µM | 22.1 ± 2.64 µM |
| CCN1CCN(CC(=O)Nc2ccc(/C=C(\C#N)c3ccc(OC)c(OC)c3)c(C)c2)CC1 [12d2] | 15.3 ± 3.86 µM | 28.7 ± 3.14 µM | 24 ± 2.46 µM | 21.3 ± 0.71 µM | 85.1 ± 13.2 µg/mL | – | – | – | 38.4 ± 4.48 µM | 25.8 ± 2.56 µM |
| COc1cc(/C(C#N)=C/c2ccc(NC(=O)CN3CCN(C(C)C)CC3)cc2)cc(OC)c1OC.Cl [compound 15] | 15.3 ± 3.02 µM | 12.2 ± 0.93 µM | 8.32 ± 0.3 µM | 14.7 ± 1.09 µM | 8620 ± 525 µg/mL | – | – | – | 21 ± 4.73 µM | 22.6 ± 1.36 µM |
| COc1cc(/C(C#N)=C/c2ccc(NC(=O)CN3CCN(CCOCCO)CC3)cc2)cc(OC)c1OC [compound 16] | 14.8 ± 3.37 µM | 31.2 ± 4.73 µM | 12.6 ± 1.74 µM | 14.4 ± 2.38 µM | 2500 ± 266 µg/mL | – | more than 231 times | – | 18.9 ± 2.95 µM | 23.4 ± 3.61 µM |
| COc1cc(/C(C#N)=C/c2ccc(NC(=O)CN3CCN[C@@H](C)C3)cc2)cc(OC)c1OC [compound 17] | 22.6 ± 1.45 µM | 15.6 ± 1.87 µM | 10.3 ± 1.07 µM | 15 ± 2.32 µM | 504 ± 117 µg/mL | – | – | – | 17.4 ± 3.56 µM | 28.2 ± 5.16 µM |
| COc1cc(/C(C#N)=C/c2ccc(NC(=O)CN3CCNC(C)C3)cc2)cc(OC)c1OC.Cl (stereo not shown) [compound 18] | 11.5 ± 2.32 µM | 12.8 ± 2.96 µM | 9.73 ± 0.9 µM | 4.16 ± 0.97 µM | 1050 ± 67.3 µg/mL | – | – | – | 14.1 ± 3.71 µM | 28.4 ± 4.52 µM |
| COc1cc(/C(C#N)=C/c2ccc(NC(=O)CN3CCNC[C@H]3C)cc2)cc(OC)c1OC.Cl [compound 20] | 15.2 ± 0.76 µM | 17.3 ± 2.31 µM | 10.5 ± 2.32 µM | 6.53 ± 1.67 µM | 111 ± 12.3 µg/mL | – | – | 200 to 202 °C | 17.8 ± 2.78 µM | 25 ± 2.94 µM |

Further lines, with some results ahead:

| IC50 [1] | IC50 [2] | IC50 [3] | IC50 [4] | solubility thermodynamic at 1.5 h [7] | Water solubility (in words) ([7]; Figure 1) | Increase of aqueous solubility compared with 9a ([7]; 0.01 M PBS, ratio to 9a) | melting point | Structure (SMILES) | IC50 [5] | IC50 [6] |
| --- | --- | --- | --- | --- | --- | --- | --- | --- | --- | --- |
| 29.1 ± 1.98 µM | 33.9 ± 2.22 µM | 4.4 ± 0.79 µM | 8.95 ± 1.37 µM | 124 ± 8.7 µg/mL | – | – | – | COc1ccc(/C(C#N)=C/c2ccc(NC(=O)CN3CCN(C)CC3)cc2)cc1OC [12c1] | > 100 µM | 23.5 ± 3.87 µM |
| 40 ± 3.81 µM | 33.4 ± 0.84 µM | 6.67 ± 2.38 µM | 9.53 ± 0.93 µM | 124 ± 8.7 µg/mL | – | – | – | COc1ccc(/C(C#N)=C/c2ccc(NC(=O)CN3CCN(C)CC3)cc2C)cc1OC [12d1] | 54.5 ± 13.2 µM | 42.4 ± 1.91 µM |
| – | – | 0.61 ± 0.16 µM | – | 4 µg/mL | Poor water solubility | – | – | COc1cc(/C(C#N)=C/c2ccc(C)cc2)cc(OC)c1OC [compound 2, reference compound] | – | – |
| 5.58 ± 2.33 µM | 15.4 ± 1.88 µM | 8.18 ± 0.67 µM | 4.72 ± 0.99 µM | 79.5 ± 11.1 µg/mL | – | – | 200 to 202 °C | COc1cc(/C(C#N)=C/c2ccc(NC(=O)CN3CCNC[C@@H]3C)cc2)cc(OC)c1OC.Cl [compound 19] | 16.3 ± 2.14 µM | 23 ± 2.05 µM |
